According to ChEMBL document CHEMBL3585250, “New pyrazolo[4,3-e][1,2,4]triazine sulfonamides as carbonic anhydrase inhibitors” (Bioorg Med Chem, 2015):

Tests used:
Carbonic anhydrase 9 = Carbonic anhydrase 9 (Homo sapiens, UniProt Q16790); assay: Inhibition of human carbonic anhydrase-9 pre-incubated for 15 mins by stopped-flow CO2 hydration assay based Lineweaver-Burk plot method
Carbonic anhydrase 12 = Carbonic anhydrase 12 (Homo sapiens, UniProt O43570); assay: Inhibition of human carbonic anhydrase-12 pre-incubated for 15 mins by stopped-flow CO2 hydration assay based Lineweaver-Burk plot method
Carbonic anhydrase 1 = Carbonic anhydrase 1 (Homo sapiens, UniProt P00915); assay: Inhibition of human carbonic anhydrase-1 pre-incubated for 15 mins by stopped-flow CO2 hydration assay based Lineweaver-Burk plot method
Carbonic anhydrase 2 = Carbonic anhydrase 2 (Homo sapiens, UniProt P00918); assay: Inhibition of human carbonic anhydrase-2 pre-incubated for 15 mins by stopped-flow CO2 hydration assay based Lineweaver-Burk plot method
MDA-MB-231 [1] = assay: Inhibition of DNA synthesis in human MDA-MB-231 cells assessed as reduction in [3H]-thymidine incorporation incubated for 24 hrs by liquid scintillation counting method; format: functional, cell-based
MCF7 [2] = assay: Cytotoxic activity against human MCF7 cells assessed as reduction in cell viability incubated for 24 hrs by MTT assay; format: functional, cell-based; details: MCF7, 24 h
MDA-MB-231 [3] = assay: Cytotoxic activity against human MDA-MB-231 cells assessed as reduction in cell viability incubated for 24 hrs by MTT assay; format: functional, cell-based; details: MDA-MB-231, 24 h
MCF7 [4] = assay: Inhibition of DNA synthesis in human MCF7 cells assessed as reduction in [3H]-thymidine incorporation incubated for 24 hrs by liquid scintillation counting method; format: functional, cell-based

Chain of Carbonic anhydrase 1 (P00915 whole entry): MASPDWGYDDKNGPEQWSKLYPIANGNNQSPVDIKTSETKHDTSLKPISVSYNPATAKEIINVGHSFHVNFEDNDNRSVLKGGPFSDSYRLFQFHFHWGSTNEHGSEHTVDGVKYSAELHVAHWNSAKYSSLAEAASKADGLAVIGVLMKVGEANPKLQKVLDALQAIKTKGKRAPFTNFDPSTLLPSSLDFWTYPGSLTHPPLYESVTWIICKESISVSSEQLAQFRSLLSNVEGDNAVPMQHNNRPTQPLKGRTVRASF
Chain of Carbonic anhydrase 12 (O43570 whole entry): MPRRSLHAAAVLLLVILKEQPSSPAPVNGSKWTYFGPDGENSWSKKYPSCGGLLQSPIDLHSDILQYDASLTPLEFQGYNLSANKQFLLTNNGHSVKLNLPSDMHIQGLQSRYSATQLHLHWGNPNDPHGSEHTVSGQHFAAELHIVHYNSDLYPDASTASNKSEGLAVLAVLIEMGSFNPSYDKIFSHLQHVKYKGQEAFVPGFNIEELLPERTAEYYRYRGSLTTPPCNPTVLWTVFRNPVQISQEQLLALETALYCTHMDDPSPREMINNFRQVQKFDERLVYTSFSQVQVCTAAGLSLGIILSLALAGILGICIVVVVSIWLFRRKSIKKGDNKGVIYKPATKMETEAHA

| SMILES | Ki (Carbonic anhydrase 9) | Ki (Carbonic anhydrase 12) | Ki (Carbonic anhydrase 1) | Ki (Carbonic anhydrase 2) | IC50 (MDA-MB-231 [1]) | IC50 (MCF7 [2]) | IC50 (MDA-MB-231 [3]) | IC50 (MCF7 [4]) |
| --- | --- | --- | --- | --- | --- | --- | --- | --- |
| CCOc1ccc(S(=O)(=O)N2CCN(C)CC2)cc1-c1nnc2c(n1)c(C)nn2-c1ccc(S(=O)(=O)N2CCN(C)CC2)c(Cl)c1 | 417 nM | 79.4 nM | 571 nM | > 50000 nM |  |  |  |  |
| CCOc1ccc(S(=O)(=O)NCCO)cc1-c1nnc2c(n1)c(C)nn2-c1ccc(C)cc1 | 24.5 nM | 91.5 nM | 605 nM | > 50000 nM |  |  |  |  |
| CCOc1ccc(S(=O)(=O)N2CCN(C)CC2)cc1-c1nnc2c(n1)c(C)nn2-c1ccc(S(=O)(=O)N2CCN(C)CC2)cc1 | 29.6 nM | 536 nM | 467 nM | > 50000 nM | > 200000 nM | > 200000 nM | > 200000 nM | > 200000 nM |
| CCOc1ccc(S(=O)(=O)N2CCN(C)CC2)cc1-c1nnc2c(n1)c(C)nn2-c1ccc(C)cc1 | 25.4 nM | 78.1 nM | 330 nM | > 50000 nM |  |  |  |  |
| CCOc1ccc(S(=O)(=O)NC[C@@H](C)O)cc1-c1nnc2c(n1)c(C)nn2-c1ccc(C)cc1 | 35.6 nM | 77.8 nM | 798 nM | > 50000 nM | > 200000 nM | > 200000 nM | > 200000 nM | > 200000 nM |
| CCOc1ccc(S(=O)(=O)NC[C@H](C)O)cc1-c1nnc2c(n1)c(C)nn2-c1ccc(C)cc1 | 13.8 nM | 82.8 nM | 810 nM | > 50000 nM | > 200000 nM | > 200000 nM | > 200000 nM | > 200000 nM |
| CCOc1ccc(S(=O)(=O)N[C@H](C)CC)cc1-c1nnc2c(n1)c(C)nn2-c1ccc(C)cc1 | 26.6 nM | 70.3 nM | 3720 nM | > 50000 nM | > 200000 nM | > 200000 nM | > 200000 nM | > 200000 nM |
| CCOc1ccc(S(=O)(=O)N[C@@H](C)CC)cc1-c1nnc2c(n1)c(C)nn2-c1ccc(C)cc1 | 27.7 nM | 77.6 nM | 3440 nM | > 50000 nM | > 200000 nM | > 200000 nM | > 200000 nM | > 200000 nM |
| CCOc1ccc(S(=O)(=O)N2CCNCC2)cc1-c1nnc2c(n1)c(C)nn2-c1ccc(Cl)cc1 |  | 93.1 nM | 4220 nM | > 50000 nM |  |  |  |  |
| CCOc1ccc(S(=O)(=O)N2CCN(C)CC2)cc1-c1nnc2c(n1)c(C)nn2-c1ccc(Cl)cc1 | 403 nM | 81.5 nM | 854 nM | > 50000 nM | > 200000 nM | > 200000 nM | > 200000 nM | > 200000 nM |
| CCOc1ccc(S(N)(=O)=O)cc1-c1nnc2c(n1)c(C)nn2-c1ccc(C)cc1 |  | 77.5 nM | 4490 nM | 7070 nM |  |  |  |  |
